Patent US20240254135A1, “POLYPHENOL COMPOUNDS” (Epirium Bio Inc., priority 2022, published 2024)

What was measured:
PGC-1α = assay: In vitro PGC-1α expression in differentiated C2C12 cells (cell ELISA); format: cell-based; conditions: 1 mM
Experimental: Culture conditions: DMEM containing 25 mM glucose with 10% FBS supplementation; grown at 37° C. and 5% CO2.
Drugs: (+)Epicatechin, AICAR (direct activator of AMPK).
Assay Conditions: C2C12 cells were cultured in DMEM supplemented in 10% FBS up to 80% confluence. The cells were further trypsinized and seeded into a 96 well plate at a density of 5000 cells/well (well volume—100 μL) (Day 0). Following attachment, the cells were allowed to reach 80-90% confluence in the plate (typically 48 hours post seeding) and further differentiated using DMEM+2% Horse Serum (200 μL/well). The media was changed every day or at least every alternate day for 5 days to allow myoblasts to differentiate into myotubes. On day 7 (post seeding), the cells were treated with standards and test compounds for PGC-1 α assay.
PGC-1α assay: For the detection of PGC-1α, the cells were incubated with 0.5 μg/ml primary antibody (Merck, WH0010891M3) in PBS-T containing 5% BSA at 4° C. overnight. The cells were then washed three times with PBS-T for 5 minutes and incubated with 1:1000 dilution secondary antibody (Anti-rabbit IgG, HRP-linked Antibody, Cell Signaling) in PBS-T with 1% BSA for 1 hour at RT. Cells were washed three times with PBS-T for 5 minutes The cells were incubated with 100 μl TMB substrate solution for 30 minutes and the reaction was stopped with 100 μl of 2N H2SO4. […] (For plate optical density calculations, a background correction was taken at 540 nm). The final PGC-1α activation % is average of activation of 6 replicates.

[1] = target: T1, mitochondrial ATP synthase (Mus musculus, UniProt P56480+Q03265); assay: Maximal ATP hydrolysis capacity in frozen heart mitochondria; format: biochemical; conditions: frozen heart mitochondria, different concentrations in the assay media
T1 construct: from tissue; host or cells: mouse heart, isolated mitochondria (fresh or frozen)
Experimental: (§1) ATP hydrolysis capacity or state 4 acidification was measured using Seahorse XF96 as described in Divakaruni et al. (2018) Anal Biochem 552:60-65 and Acin-Perez et al. (2021) Life 11(9):949, in MAS (70 mM Sucrose, 220 mM Mannitol, 5 mM KH2PO4, 5 mM MgCl2, 1 mM EGTA, 2 mM HEPES; pH 7.2). Plates were loaded with 0.75-1.5 μg of mouse heart mitochondria, or 25 μg of cell lysate. Cell lysates were prepared by subjecting the samples to 4 cycles of free thaw (liquid nitrogen—37° C. water bath) before measuring protein concentration. When assessing compounds effect on respirometry, the compounds were added in MAS after sample centrifugation. Initial respiration of the samples was sustained by the addition of 5 mM succinate+2 μM rotenone in the MAS after centrifugation. Injections were performed at the following final concentration in the well: Antimycin A (2 μM), oligomycin (5 μM), FCCP (1 μM), ATP (20 mM). To assess maximal ATP concentration, ATP was injected consecutively.
An additional assay was developed to determine the maximal ATP hydrolysis capacity in frozen mitochondria. Maximal ATP hydrolytic capacity was assessed in frozen heart mitochondria where mitochondrial respiration is inhibited by Antimycin A and maximal ATP hydrolysis is driven by co-injection of FCCP and ATP, followed by inhibition in the presence of oligomycin.

[2] = target: T1, mitochondrial ATP synthase; assay: ATP hydrolysis (proton release/ECAR, Seahorse XF96) in fresh heart mitochondria; format: biochemical; conditions: fresh heart mitochondria (FIG. 1, FIG. 2)
Excerpt: (§2) To assess whether the fraction of synthetic and reverse hydrolytic activities of mitochondrial ATP synthase can be measured in the same preparation, a protocol was developed to monitor changes in oxygen consumption and proton release in response to changes in mitochondrial ATP synthase activity. The proton released and the concomitant changes in the pH can be monitored using the ECAR (extracellular acidification) channel in the Agilent Seahorse XF analyzer using isolated mitochondria, to ensure that the changes in pH cannot be attributed to glycolysis or other contributors to ECAR.
(§3) Mice were anesthetized with isoflurane followed by a cervical dislocation, and the heart was immediately removed and placed in ice cold relaxation buffer (5 mM sodium pyrophosphate, 100 mM KCl, 5 mM EGTA, 5 mM HEPES; pH 7.4). The heart was squeezed with tweezers to remove blood, minced with scissors, and then placed in a glass-glass Dounce homogenizer with 3 mL of HES homogenization buffer (250 mM sucrose, 5 mM HEPES, 1 mM EDTA; pH to 7.2, adjusted with KOH). The heart tissue was homogenized first with the loose pestle and followed by the tight pestle. The homogenized tissue was placed in a pre-chilled 15 ml conical tube and centrifuged at 900×g (4° C.) for 10 minutes (min). The supernatant was removed, placed in a new tube and centrifuged again at 900×g for 10 min. The supernatant was then transferred to 2 mL microcentrifuge tubes and centrifuged at 10,000×g (4° C.) for 10 min. The mitochondrial pellets were re-suspended in ice cold HES buffer and mitochondrial protein was measured with a BCA assay (Pierce). The concentrated mitochondrial pellet was stored on ice.
Heart mitochondria (0.75-1.5 μg) were loaded into a Seahorse XF96 microplate in 20 μL of MAS (70 mM Sucrose, 220 mM Mannitol, 5 mM KH2PO4, 5 mM MgCl2, 1 mM EGTA, 2 mM HEPES; pH 7.2) plus 1% free fatty acid BSA containing substrates. The loaded plate was centrifuged at 2,000×g for 5 min at 4° C. (no brake) and an additional 130 μL of MAS was added to each well. When assessing compounds effect on respirometry, the compounds were added at this point at the indicated concentration in MAS buffer. To avoid disrupting mitochondrial adherence to the bottom of the plate, MAS was added using a multichannel pipette pointed at a 45° angle to the top of the well-chamber, as instructed by the manufacturer. Substrate concentrations in the well when assay was starting in state 4 were as follow: (i) 5 mM pyruvate+5 mM malate or ii) 5 mM succinate+2 μM rotenone. Substrate concentrations in the well when assay was starting in state 3 were as follow: (i) 5 mM pyruvate+5 mM malate+4 mM ADP or ii) 5 mM succinate+2 μM rotenone+4 mM ADP. Injections were performed as indicated in the figure descriptions at the following final concentration in the well: oligomycin (3.5 μM), FCCP (4 μM), Antimycin A (2 μM). Compounds were added at the indicated concentration.
as §1, with “consecutively. […]” for “consecutively.”

[3] = target: T1, mitochondrial ATP synthase; assay: ATP synthesis (oxygen consumption, Seahorse XF96) in fresh heart mitochondria; format: biochemical; conditions: fresh heart mitochondria (FIG. 1, FIG. 2)
Excerpt: as §2, §3
Heart mitochondria (0.75-1.5 μg) were loaded into a Seahorse XF96 microplate in 20 μL of MAS (70 mM Sucrose, 220 mM Mannitol, 5 mM KH2PO4, 5 mM MgCl2, 1 mM EGTA, 2 mM HEPES; pH 7.2) plus 1% free fatty acid BSA containing substrates. The loaded plate was centrifuged at 2,000×g for 5 min at 4° C. […]
Oxygen consumption was measured in isolated fresh intact mitochondria from mouse heart, as oxygen consumption is linked to maximal ATP synthesis and proton release when mitochondria are respiring either in the presence of substrates and ADP (ATP synthesizing mitochondria or state 3) or in the presence of substrates but not ADP (state 4). […]
OCR and ECAR were measured in a Seahorse XF96 analyzer under basal conditions as well as after injection of 2 μM oligomycin, two sequential additions of 1.5 μM FCCP, followed by 1 μM rotenone with 2 μM antimycin A. Respiratory parameters were calculated according to standard protocols, and all rates were corrected for non-mitochondrial respiration/background signal by subtracting the oxygen consumption rate insensitive to rotenone plus antimycin A.

| Compound | % Activity (PGC-1α expression) (PGC-1α; Table 4, differentiated C2C12 cells, OD at 5 minutes) [%] | % Activity (PGC-1α expression) (PGC-1α; Table 5, differentiated C2C12, 5000 cells/well, DMSO = 100) [%] | % Activity (PGC-1α expression) (PGC-1α; Table 6, C2C12 cells, 5000 cells/well) [%] | % Activity (PGC-1α expression) (PGC-1α; Table 7, C2C12 cells, 5000 cells/well, DMSO = 100) [%] | % Activity (PGC-1α expression) (PGC-1α; Table 8, C2C12 cells, 5000 cells/well, DMSO = 100) [%] | inhibition of ATP hydrolysis [1] | changes in ATP hydrolysis [2] | change in ATP synthesis [3] |
| --- | --- | --- | --- | --- | --- | --- | --- | --- |
| NC(=O)c1ncn([C@@H]2O[C@H](CO)[C@@H](O)[C@H]2O)c1N [AICAR, 5-aminoimidazole-4-carboxamide-1-β-D-ribofuranoside] | 128 | 122 | 136 | 122 | 140 | – | – | – |
| CC[C@H]1/C=C/C=C/C[C@@H](C)[C@H](O)[C@@](C)(O)C(=O)[C@@H](C)[C@H](O)[C@@H](C)C(=O)[C@@H](C)[C@H](O)[C@@H](C)/C=C/C(=O)O[C@@H]2[C@H](C)[C@H](CC1)O[C@]1(CC[C@H](C)[C@H](C[C@@H](C)O)O1)[C@H]2C [Oligomycin, oligomycin, reference compound] | – | – | – | – | – | dose dependent inhibition | worked as expected | worked as expected |
